Measurements: US12577231B2, “Androgen receptor PROTACS” (GlaxoSmithKline Intellectual Property Development Limited, priority 2023, dated 2026)

What follows are compounds tested against T1, Androgen Receptor protein in human LnCaP cells (Homo sapiens, UniProt P10275, T878A) (assay: Androgen Receptor Degradation Assay (Nano-Glo HiBiT, LnCaP cells)). Conditions: 18 h, HiBiT-tagged AR LnCaP cells, 18 h incubation, fitted curve asymptote maximum of degradation, read-out: mean asymptote max.
T1 construct: the AR gene was modified, using CRISPR/Cas9 editing, so the expressed AR protein included an 11 amino acid HiBiT tag; endogenous in cells; host or cells: clonal LnCaP derived cell line, endogenous AR gene edited by CRISPR/Cas9
T1 sequence (P10275 1-920 T878A): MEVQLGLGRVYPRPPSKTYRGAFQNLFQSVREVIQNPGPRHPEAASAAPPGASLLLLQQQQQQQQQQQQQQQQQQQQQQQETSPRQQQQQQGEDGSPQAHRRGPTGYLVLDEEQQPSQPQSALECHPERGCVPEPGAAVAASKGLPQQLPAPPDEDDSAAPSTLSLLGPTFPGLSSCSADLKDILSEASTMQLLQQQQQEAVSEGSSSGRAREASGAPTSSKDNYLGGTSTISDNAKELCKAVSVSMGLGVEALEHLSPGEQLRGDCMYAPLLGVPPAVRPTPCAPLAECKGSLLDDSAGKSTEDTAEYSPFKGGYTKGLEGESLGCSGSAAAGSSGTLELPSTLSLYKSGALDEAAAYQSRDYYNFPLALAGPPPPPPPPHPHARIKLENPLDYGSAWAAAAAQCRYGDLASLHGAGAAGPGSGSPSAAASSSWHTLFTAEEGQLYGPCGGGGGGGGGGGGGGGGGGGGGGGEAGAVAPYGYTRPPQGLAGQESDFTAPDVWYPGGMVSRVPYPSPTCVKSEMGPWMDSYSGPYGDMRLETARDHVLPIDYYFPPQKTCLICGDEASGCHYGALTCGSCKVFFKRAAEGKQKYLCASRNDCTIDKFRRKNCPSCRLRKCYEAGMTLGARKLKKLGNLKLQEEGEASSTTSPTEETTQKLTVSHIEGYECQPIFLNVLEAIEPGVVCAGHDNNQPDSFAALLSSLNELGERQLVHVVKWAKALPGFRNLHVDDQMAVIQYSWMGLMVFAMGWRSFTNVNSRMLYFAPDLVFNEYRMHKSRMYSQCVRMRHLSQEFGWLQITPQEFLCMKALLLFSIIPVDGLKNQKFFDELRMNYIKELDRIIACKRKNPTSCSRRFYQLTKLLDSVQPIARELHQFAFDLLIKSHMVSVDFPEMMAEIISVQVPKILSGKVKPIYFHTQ
Assay type: cell-based
Method: Degradation of Androgen Receptor protein in human LnCaP cells treated with PROTACs was quantified using the Nano-Glo® HiBiT Lytic Detection System (Promega) in 384 well assay plate format. A clonal LnCaP derived cell line was first established in which the AR gene was modified, using CRISPR/Cas9 editing, so the expressed AR protein included an 11 amino acid HiBiT tag at its amino-terminus. 10 mM DMSO stock solutions of PROTACs were prepared and diluted across an 11 concentration, 3 fold increment range, and 25 nL dispensed into a white opaque bottomed 384 well assay plate (Thermofisher) using an acoustic ECHO dispenser (Labcyte). Cells were grown in cell culture medium (RPMI 1640 supplemented with 15% FBS, penicillin 50U/mL and streptomycin 50 ug/mL (Thermofisher)). For the assay, cells were detached from flask and resuspended with assay medium (FluoroBrite™ DMEM supplemented with 10% heat inactivated FBS, penicillin 50U/mL and streptomycin 50 ug/mL (Thermofisher)). The cell suspension was centrifuged at 400 g for 5 min and the pellet resuspended in assay medium. 25 μL of cell suspension containing 10,000 cells was dispensed into each well of the assay plate containing a serial dilution of test compounds, which was then incubated for 18 h at 37° C./5% CO2. Control wells were included on each assay plate, with assay medium without cells being the no AR remaining 100% effect control, and cells treated with DMSO vehicle only, without PROTAC, the 0% effect control. 25 μL of Nano-Glo® HiBiT lysis buffer supplemented with LgBiT protein and Nano-Glo® substrate (Promega) was added to each well and the plate shaken at 500 rpm for 10 min at room temperature. The intensity of luminescence was measured using a PHERAstar microplate reader (BMG Labtech) and the % AR protein remaining in each well calculated by normalising the raw luminescence value to the above control wells. Parameters corresponding to the potency and efficacy estimates of the PROTACs were obtained from these normalised luminescence values using software (IDBS ActivityBase). These included the DC50 (concentration at which 50% of protein was degraded in M) and the Dmax (maximal degradation, in %) estimates. Two versions of the DC50, called relative DC50 and absolute DC50, were generated. These are the inflection point of a fitted 4 parameter sigmoidal response curve and the interpolated concentration of PROTAC corresponding to 50% of the protein being degraded, respectively. The corresponding pDC50 is reported as −log10(relative […]). The Dmax parameter was the maximum experimentally observed degradation and the asymptote max parameter the fitted response curve asymptote maximum.

Dmax, ≥ 50%:
CC1(C)[C@H](NC(=O)c2ccc(N3CCC(CN4CC[C@H](n5ncc6c(N7CCC(=O)NC7=O)cccc65)[C@H](F)C4)CC3)c(F)c2)C(C)(C)[C@H]1Oc1ccc(C#N)c2ncccc12 [Example 46, N-((1r,3r)-3-((8-Cyanoquinolin-5-yl)oxy)-2,2,4,4-tetramethylcyclobutyl)-4-(4-(((3R,4S)-4-(4-(2,4-dioxotetrahydropyrimidin-1(2H)-yl)-1H-indazol-1-yl)-3-fluoropiperidin-1-yl)methyl)piperidin-1-yl)-3-fluorobenzamide]
CC1(C)[C@H](NC(=O)c2ccc(N3CCC(CN4CC[C@@H](n5ncc6c(N7CCC(=O)NC7=O)cccc65)[C@@H](F)C4)CC3)c(F)c2)C(C)(C)[C@H]1Oc1ccc(C#N)c2ncccc12 [Example 45, N-((1r,3r)-3-((8-Cyanoquinolin-5-yl)oxy)-2,2,4,4-tetramethylcyclobutyl)-4-(4-(((35,4R)-4-(4-(2,4-dioxotetrahydropyrimidin-1(2H)-yl)-1H-indazol-1-yl)-3-fluoropiperidin-1-yl)methyl)piperidin-1-yl)-3-fluorobenzamide]
CC1(C)[C@H](NC(=O)c2ccc(N3CCC(CN4CCC(n5ncc6c(N7CCC(=O)NC7=O)cccc65)CC4)CC3)c(F)c2)C(C)(C)[C@H]1Oc1cnc(C#N)c(Cl)c1 [Example 3, N-((1r,3r)-3-((5-Chloro-6-cyanopyridin-3-yl)oxy)-2,2,4,4-tetramethylcyclobutyl)-4-(4-((4-(4-(2,4-dioxotetrahydropyrimidin-1(2H)-yl)-1H-indazol-1-yl)piperidin-1-yl)methyl)piperidin-1-yl)-3-fluorobenzamide]
CC1(C)[C@H](NC(=O)c2ccc(N3CCC(CN4CCC(n5ncc6c(N7CCC(=O)NC7=O)cccc65)CC4)CC3)c(F)c2)C(C)(C)[C@H]1Oc1ccc(C#N)c2c1CCCO2 [Example 8, N-((1r,3r)-3-((8-Cyanochroman-5-yl)oxy)-2,2,4,4-tetramethylcyclobutyl)-4-(4-((4-(4-(2,4-dioxotetrahydropyrimidin-1(2H)-yl)-1H-indazol-1-yl)piperidin-1-yl)methyl)piperidin-1-yl)-3-fluorobenzamide]
CC1(C)[C@H](NC(=O)c2ccc(N3CCC(CN4CCC(n5ncc6c(N7CCC(=O)NC7=O)c(F)ccc65)CC4)CC3)c(F)c2)C(C)(C)[C@H]1Oc1ccc(C#N)c2ncccc12 [Example 50, N-((1r,3r)-3-((8-Cyanoquinolin-5-yl)oxy)-2,2,4,4-tetramethylcyclobutyl)-4-(4-((4-(4-(2,4-dioxotetrahydropyrimidin-1(2H)-yl)-5-fluoro-1H-indazol-1-yl)piperidin-1-yl)methyl)piperidin-1-yl)-3-fluorobenzamide]
CC1(C)[C@H](NC(=O)c2ccc(N3CCC(CN4CCC(n5ncc6c(N7CCC(=O)NC7=O)cc(C(F)(F)F)cc65)CC4)CC3)c(F)c2)C(C)(C)[C@H]1Oc1ccc(C#N)c2ncccc12 [Example 42, N-((1r,3r)-3-((8-Cyanoquinolin-5-yl)oxy)-2,2,4,4-tetramethylcyclobutyl)-4-(4-((4-(4-(2,4-dioxotetrahydropyrimidin-1(2H)-yl)-6-(trifluoromethyl)-1H-indazol-1-yl)piperidin-1-yl)methyl)piperidin-1-yl)-3-fluorobenzamide]
CC1(C)[C@H](NC(=O)c2ccc(N3CCC(CN4CCC(n5ncc6c(N7CCC(=O)NC7=O)cc(F)cc65)CC4)CC3)c(F)c2)C(C)(C)[C@H]1Oc1ccc(C#N)c2ncccc12 [Example 38, N-((1r,3r)-3-((8-Cyanoquinolin-5-yl)oxy)-2,2,4,4-tetramethylcyclobutyl)-4-(4-((4-(4-(2,4-dioxotetrahydropyrimidin-1(2H)-yl)-6-fluoro-1H-indazol-1-yl)piperidin-1-yl)methyl)piperidin-1-yl)-3-fluorobenzamide]
CC1(C)[C@H](NC(=O)c2ccc(N3CCC(CN4CCC(n5ncc6c(N7CCC(=O)NC7=O)c(F)ccc65)CC4)CC3)c(F)c2)C(C)(C)[C@H]1Oc1ccc(C#N)c(Cl)c1 [Example 13, N-((1r,3r)-3-(3-Chloro-4-cyanophenoxy)-2,2,4,4-tetramethylcyclobutyl)-4-(4-((4-(4-(2,4-dioxotetrahydropyrimidin-1(2H)-yl)-5-fluoro-1H-indazol-1-yl)piperidin-1-yl)methyl)piperidin-1-yl)-3-fluorobenzamide]
CC1(C)[C@H](NC(=O)c2ccc(N3CCC(CN4CCC(n5ncc6c(N7CCC(=O)NC7=O)nccc65)CC4)CC3)c(F)c2)C(C)(C)[C@H]1Oc1ccc(C#N)c2ncccc12 [Example 39, N-((1r,3r)-3-((8-Cyanoquinolin-5-yl)oxy)-2,2,4,4-tetramethylcyclobutyl)-4-(4-((4-(4-(2,4-dioxotetrahydropyrimidin-1(2H)-yl)-1H-pyrazolo[4,3-c]pyridin-1-yl)piperidin-1-yl)methyl)piperidin-1-yl)-3-fluorobenzamide]
CC1(C)[C@H](NC(=O)c2ccc(N3CCC(CN4CCC(n5ccc6c(N7CCC(=O)NC7=O)ncnc65)CC4)CC3)c(F)c2)C(C)(C)[C@H]1Oc1ccc(C#N)c2ncccc12 [Example 47, N-((1r,3r)-3-((8-Cyanoquinolin-5-yl)oxy)-2,2,4,4-tetramethylcyclobutyl)-4-(4-((4-(4-(2,4-dioxotetrahydropyrimidin-1(2H)-yl)-7H-pyrrolo[2,3-d]pyrimidin-7-yl)piperidin-1-yl)methyl)piperidin-1-yl)-3-fluorobenzamide]
CC1(C)[C@H](NC(=O)c2ccc(N3CCC(CN4CCC(n5ccc6c(N7CCC(=O)NC7=O)ncnc65)CC4)CC3)cc2)C(C)(C)[C@H]1Oc1ccc(C#N)c2ncccc12 [Example 28, N-((1r,3r)-3-((8-Cyanoquinolin-5-yl)oxy)-2,2,4,4-tetramethylcyclobutyl)-4-(4-((4-(4-(2,4-dioxotetrahydropyrimidin-1(2H)-yl)-7H-pyrrolo[2,3-d]pyrimidin-7-yl)piperidin-1-yl)methyl)piperidin-1-yl)benzamide]
CC1(C)[C@H](NC(=O)c2ccc(N3CCC(CN4CCC(n5ccc6c(N7CCC(=O)NC7=O)c(F)ccc65)CC4)CC3)c(F)c2)C(C)(C)[C@H]1Oc1ccc(C#N)c2ncccc12 [Example 51, N-((1r,3r)-3-((8-Cyanoquinolin-5-yl)oxy)-2,2,4,4-tetramethylcyclobutyl)-4-(4-((4-(4-(2,4-dioxotetrahydropyrimidin-1(2H)-yl)-5-fluoro-1H-indol-1-yl)piperidin-1-yl)methyl)piperidin-1-yl)-3-fluorobenzamide]
COc1cc(O[C@H]2C(C)(C)[C@H](NC(=O)c3ccc(N4CCC(CN5CC[C@@H](n6ncc7c(N8CCC(=O)NC8=O)cccc76)[C@@H](F)C5)CC4)c(F)c3)C2(C)C)ccc1C#N [Example 27, N-((1r,3r)-3-(4-Cyano-3-methoxyphenoxy)-2,2,4,4-tetramethylcyclobutyl)-4-(4-(((3,4R)-4-(4-(2,4-dioxotetrahydropyrimidin-1(2H)-yl)-1H-indazol-1-yl)-3-fluoropiperidin-1-yl)methyl)piperidin-1-yl)-3-fluorobenzamide]
